We go through one compound from patent publication US8303999B2, “Natural extract containing xanthohumol, method for the production thereof and products produced therefrom” (Ta-Xan AG, priority 2004, dated 2012).

In brackets after ≈: the same amount, converted by molar mass. Where two headings read alike, the source gives them in different places.

As a reminder, the solubility is the dissolved amount per volume that the medium holds.

This series in a line: solubility limit of XN in aqueous solution (water). The format is physicochemical. Particulars: read-out: solubility limit of XN in typical aqueous solutions. Here is the method: For producing roasted extract comprising XN a hot aqueous extract of the ground roasted products e.g. of barley, wheat, rye as well as the corresponding malts, coffee beans or cacao beans is prepared. A hop extract comprising XN is added thereto at the beginning of the heating period. The extraction of xanthohumol in the extractions of the roasted products leads to a XN content which is by far higher than the solubility limit of XN in typical aqueous solutions. This amounts to 1.3 mg/l of XN at a water temperature of 23° C. and to 1.1 mg/l of XN at a water temperature of 8° C.

For `COc1cc(O)c(CC=C(C)C)c(O)c1C(=O)/C=C/c1ccc(O)cc1` [XN, xanthohumol], the solubility (water temperature of 8° C.) is 1.1 µg/mL (≈ 3.1 µM) and the solubility (water temperature of 23° C.) came to 1.3 µg/mL (≈ 3.67 µM).
